Results as given in US4317821A, “Maytansinoids, their use and pharmaceutical compositions thereof” (Takeda Chemical Industries, Ltd., priority 1979, dated 1982).
In brackets after ≈: the same amount, converted by molar mass.

How the values were obtained:
Tetrahymena pyriformis W = assay: Antiprotozoal activity: growth inhibition by serial dilution method; type: cell-based; settings: 28° C., 44 to 48 hours, pH 7.0 medium
Description: Antiprotozoal activity of compound (I) was assayed with Tetrahymena pyriformis W as the test organism and a medium composed of 20 g tryptose-peptone (Difco Co.), 1 g yeast extract, 2 g glucose, 1000 ml distilled water, 10 ml 1 M phosphate buffer (pH 7.0) as the assay medium. The microorganism was incubated at 28° C. for 44 to 48 hours and the growth inhibitory activity of compound (I) was assayed by the serial dilution method.

[1] = test system: melanoma B-16 tumor cells; assay: Antitumor activity: life span prolongation in mice intraperitoneally transplanted with melanoma B-16 (NCI-protocol 1,300); type: in vivo; settings: intraperitoneally once daily for 9 consecutive days
Description: Therapeutic tests were carried out in mice according to NCI-protocol 1,300, Cancer Chemother, Reports, Part 3, 1972, Vol. 3, No. 2, in which melanoma B-16 tumor cells had been intraperitoneally transplanted, compound (I) being administered intraperitoneally once daily for 9 consecutive days.

SMILES | MIC (Tetrahymena pyriformis W) [µg/mL] | Antitumor activities B-16 (T/C %) ([1]; dose 3.125 μg/kg) [%] | Antitumor activities B-16 (T/C %) ([1]; dose 6.25 μg/kg) [%] | Antitumor activities B-16 (T/C %) ([1]; dose 12.5 μg/kg) [%] | Antitumor activities B-16 (T/C %) ([1]; dose 100 μg/kg) [%] | Antitumor activities B-16 (T/C %) ([1]; dose 200 μg/kg) [%] | Antitumor activities B-16 (T/C %) ([1]; dose 400 μg/kg) [%] | Antitumor activities B-16 (T/C %) ([1]; dose 800 μg/kg) [%]
COc1cc2cc(c1Cl)N(C)C(=O)CC(OC(=O)C(COC(C)=O)c1ccccc1)C1(C)OC1C(C)C1CC(O)(NC(=O)O1)C(OC)C=CC=C(C)C2 (stereo not drawn) [maytansinol 3-α-acetoxymethylphenylacetate] | 1 to 2 (≈ 1.32 to 2.65 µM) |  |  |  |  |  |  | 
COc1cc2cc(c1Cl)N(C)C(=O)CC(OC(=O)C(OC(C)=O)c1ccccc1)C1(C)OC1C(C)C1CC(O)(NC(=O)O1)C(OC)C=CC=C(C)C2 (stereo not drawn) [Maytansinol 3-α-acetoxyphenylacetate, maytansinol 3-(α-acetoxyphenyl)acetate] | < 2 | 181 | 260 | 161 |  |  |  | 
COc1cc2cc(c1Cl)N(C)C(=O)CC(OC(=O)C(O)c1ccccc1)C1(C)OC1C(C)C1CC(O)(NC(=O)O1)C(OC)C=CC=C(C)C2 (single isomer, unassigned) [maytansinol 3-α-hydroxyphenylacetate] |  |  |  |  | 178 | 208 | 247 | 217
